Measurements: publication PMC9688808, “Discovery of Novel Lin28 Inhibitors to Suppress Cancer Cell Stemness” (Cancers, 2022)

Experiments:
[1] = target: T1, Lin28A ZKD (Homo sapiens, UniProt Q9H9Z2); test: Fluorescence polarization (FP) assay, Lin28A ZKD with FAM-labeled Let-7 probe; assay type: binding; settings: for suppression of FP signals: Lin28A ZKD; for IC50: 10 uM Lin28A ZKD, 1 nM FAM-labeled Let-7 probe, 1 nM–200 uM compound
T1 construct: Lin28A ZKD (aa121-187); His-tag; made in house; host or cells: Escherichia coli BL21
T1 sequence (Q9H9Z2 121-187): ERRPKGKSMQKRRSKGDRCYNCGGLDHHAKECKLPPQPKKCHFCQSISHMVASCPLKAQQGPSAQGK
Source text: ZINC compounds were purchased from Enamine (Kyiv, Ukraine), Life Chemicals Ltd. (Kyiv, Ukraine), or Princeton Biomolecular Research (Princeton, NJ, USA) with >90% purity. Upon receiving the compounds, the molecular masses were validated by LC/MS/MS. His-tagged human Lin28B ZKD (aa110-174), Lin28B CSD+ZKD (aa7-204), and Lin28A ZKD (aa121-187) were expressed in Escherichia coli BL21 cells and purified by immobilized metal ion affinity chromatography (IMAC) with nickel nitrilotriacetic acid (NiNTA) resin and size exclusion chromatography (s75 10/300 GL) as we have previously reported.
The fluorescein amidites (FAM)-tagged Let-7 probe with the sequence of […] was purchased from Integrated DNA Technologies (IDT). The probe at the concentrations ranging from 1 nM to 50 uM was incubated with Lin28B (ZKD) or Lin28 (CSD+ZKD) to a final volume of 30 uL at room temperature for 20 min. To read the fluorescence, a TECAN 500 machine was used. Fluorescence polarization was calculated using the following equation: P=Fparrallel−Fperpendicular/Fparrallel+Fperpendicular where P is the fluorescence polarization reading, F parallel is the fluorescence intensity acquired from the parallel excitation plane, and F perpendicular is the fluorescence intensity acquired from the perpendicular direction of the excitation plane. The total fluorescence intensity is estimated using the following equation: F=Fparallel+2Fperpendicular
All the raw FP signal data from the TECAN 500 FP results were analyzed using Prism 8.0 (GraphPad, San Diego, CA, USA); normalized curves were plotted and IC50 values were estimated. All FP data were repeated three to five times.
Figure 5 Lin28 inhibitors block the Lin28A isoform. (A) EMSA used 10 nM of IR800DyeCWN-labeled Let-7 probe (lane 1), 0.5 uM Lin28A ZKD protein with 10 nM of labeled Let-7 probe (lane 2), or Lin28A ZKD, labeled Let-7 probe and 100× non-labeled competitor probe (lane 3). EMSA used Lin28A ZKD, labeled Let-7 probe, and 100–1200 uM of indicated compounds (lanes 4–10). (B) FP assays were performed by using 10 uM of Lin28A ZKD, 1 nM of FAM-labeled Let-7 probe, and 1 nM–200 uM of compounds. (C) Lin28A-positive IGROV1 cells were treated with 20 uM of the indicated compound for 48 h. Real-time qPCR measured RNA levels of Let-7d, SOX2, and HMGA2. Three biological replicates were performed and all results are presented as mean +/− SD. p-value ≤ 0.05—(*); ≤0.01—(**); ≤0.001—(***).

[2] = target: T2, Lin28B ZKD (Homo sapiens, UniProt Q6ZN17); test: Bio-layer interferometry (BLI) with Avi-tagged Lin28B ZKD; assay type: binding; settings: for BLI binding to Lin28 ZKD: up to 100 µM
T2 construct: His-tagged human Lin28B ZKD (aa110-174); His-tag; made in house; host or cells: Escherichia coli BL21
T2 sequence (Q6ZN17 110-174): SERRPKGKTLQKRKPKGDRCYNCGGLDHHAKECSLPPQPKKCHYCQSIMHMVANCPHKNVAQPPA
Procedure: BLI assays were performed as we previously reported to quantify the direct and reversible interactions between small molecules and Lin28B ZKD by using OctetRED (ForteBio, Bohemia, NY, USA). Lin28B was thus expressed with His-tag and a biotinylated AviTag sequence ([…]) at its N-terminus in Escherichia coli BL21 cells. Purified Lin28B ZKD (50 ug/mL) was bound to the super-streptavidin sensors for 1 h at room temperature. Sensors were next blocked with biocytin, washed, and then dipped into wells containing increasing concentrations of the tested inhibitors in assay buffer (20 mM N-2-hydroxyethylpiperazine-N0-2-ethanesulfonic acid (HEPES), 150 mM NaCl, 500 uM tris(2-carboxyethyl) phosphine (TCEP), and 1% dimethylsulfoxide (DMSO)). Association for 200 s and dissociation in assay buffer for 100 s were recorded for each well. Data analysis was done using the OctetRED software (ForteBio, Bohemia, NY, USA).
Figure 3 Lin28 inhibitors block the interaction between Lin28B ZKD and Let-7. (A) EMSA used 10 nM of IR800DyeCWN-labeled let-7 probe (lane 1), 0.5 uM Lin28B ZKD protein with 10 nM of labeled Let-7 probe (lane 2), or Lin28B ZKD, labeled Let-7 probe and 100× non-labelled competitor probe (lane 3). EMSA used Lin28B ZKD, labeled Let-7 probe, and 100–1200 uM of indicated compounds (lanes 4–10). (B) FP assays were performed by using 10 uM of Lin28B ZKD and 1 nM of FAM-labeled Let-7 probe and 1 nM–1000 uM of compounds. (C) Bio-layer interferometry (BLI) assays were performed using 0–25 uM of Ln115 with Avi-tagged Lin28B ZKD protein. (D) Chemical structures of the three lead compounds were shown.
To validate that these molecules indeed directly bind to the ZKD domain of Lin28 in a reversible and dose-dependent manner, we used the biolayer interferometry (BLI) assay. Biotinylated Avi-tagged Lin28 ZKD was immobilized onto streptavidin biosensors. The sensor plates were then dipped in successive wells containing increasing concentrations of Ln7, Ln 15, or Ln115. […]

| suppression of FP signals [1] | BLI binding to Lin28 ZKD [2] | IC50 [1] | Kd ([2]; 0–25 uM Ln115, Avi-tagged Lin28B ZKD, read-out: estimated KD (BLI)) | SMILES |
| --- | --- | --- | --- | --- |
| mild inhibitions | – | – | – | CCOc1cccc2c1N[C@@H](c1ccc(C(=O)O)cc1)[C@H]1CC=C[C@@H]21 [Li71, reference compound] |
| – | did not show any binding | 27.4 µM | – | CCc1cc(=O)[nH]c(Nc2cc(Cl)ccc2O)n1 [Ln7] |
| – | non-specific binding to the sensors | 9.1 µM | – | O=c1[nH]c(Nc2ccccc2O)cs1 [Ln15] |
| – | – | 12.2 µM | 60 ± 4 µM | O=c1cccc(-c2nc3cc(F)c(O)cc3c(=O)[nH]2)[nH]1 [Ln115] |
| mild inhibitions | – | – | – | CC(=O)N(C)c1cccc(-c2ccc3nnc(C)n3n2)c1 [compound 1632, reference compound] |
